Where two headings read alike, the source gives them in different places.
Experiments:
Type in all cases: cell-based
MYB mRNA [1] = assay: Splicing RT-qPCR assay (THP), Table 2A
MYB mRNA [2] = assay: Gene panel canonical junction qPCR assay, decrease in CJ mRNA, Table 3
In short: (§1)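 A673 cells were plated, left to adhere for 24 h, then dosed; K562 cells were plated in 96- or 384-well format and dosed directly. Both were incubated 24 h at 37 °C with an 11-point 3-fold series (top 10 uM final). Canonical junction mRNA was then read by cDNA synthesis and qPCR.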

HTT mRNA [3] = assay: as above
In short: as §1

[4] = test system: SH-SY5Y (human neuroblastoma) cells; assay: Cell viability, Cell Titer Glo 2.0 assay; conditions: read-out: Viability SHSY5Y.3 GI50
In short: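 SH-SY5Y neuroblastoma cells are exposed to test compounds for 72 hours at 37 °C and 5% CO2, with final DMSO held at 0.1%. Cell viability is then measured with the CellTiter-Glo 2.0 assay.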

HTT mRNA [5] = assay: Splicing RT-qPCR assay (THP), Table 2A
[6] = Table 2A, THP, MYB alternative junction (AJ) mRNA, read-out: MYB AJ (AC50, increase in alternative junction mRNA)
[7] = Table 2A, THP, MYB canonical junction (CJ) mRNA, read-out: MYB CJ (IC50, decrease in canonical junction mRNA)
[8] = decrease in CJ mRNA levels, canonical junction qPCR, gene panel
[9] = Table 2A, THP, HTT alternative junction (AJ) mRNA, read-out: HTT AJ (AC50, increase in alternative junction mRNA)
[10] = Table 2A, THP, HTT canonical junction (CJ) mRNA, read-out: HTT CJ (IC50, decrease in canonical junction mRNA)
[11] = Table 2A (THP), AJ mRNA increase, read-out: MYB AJ (increase in alternative junction mRNA, AC50)
[12] = Table 2A (THP), CJ mRNA decrease, read-out: MYB CJ (decrease in canonical junction mRNA, IC50)
[13] = decrease in canonical junction (CJ) mRNA, gene panel qPCR, Table 3
[14] = Table 2A (THP), AJ mRNA increase, read-out: HTT AJ (increase in alternative junction mRNA, AC50)
[15] = Table 2A (THP), CJ mRNA decrease, read-out: HTT CJ (decrease in canonical junction mRNA, IC50)

SMILES	IC50 (MYB mRNA [1]; [7]) [nM]	IC50 (MYB mRNA [2]; [8]) [nM]	IC50 (HTT mRNA [3]; [8]) [nM]	GI50 [4] [nM]	IC50 (HTT mRNA [5]; [10]) [nM]	IC50 (MYB mRNA [1]; [12]) [nM]	IC50 (MYB mRNA [2]; [13]) [nM]	IC50 (HTT mRNA [3]; [13]) [nM]	IC50 (HTT mRNA [5]; [15]) [nM]	AC50 (MYB mRNA [1]; [6]) [nM]	AC50 (HTT mRNA [5]; [9]) [nM]	AC50 (MYB mRNA [1]; [11]) [nM]	AC50 (HTT mRNA [5]; [14]) [nM]
COc1c(NC(=O)c2ccc(N3CCC(NC4CC4)CC3)n3cc(C)nc23)cn2cc(C)nc(C)c12 [Compound 631, 5-[4-(cyclopropylamino)-1-piperidyl]-N-(8-methoxy-1,3-dimethyl-pyrrolo[1,2-a]pyrazin-7-yl)-2-methyl-imidazo[1,2-a]pyridine-8-carboxamide]	1000 to 10000	1000 to 10000	1000 to 10000	1000 to 10000	1000 to 10000	–	–	–	–	1000 to 10000	1000 to 10000	–	–
COC(=O)NCc1cc(NC(=O)c2ccc(N3CCC(NC4CC4)CC3)c3cn(C)nc23)cc2cn(C)nc12 [Compound 814]	100 to 1000	100 to 1000	> 10000	1000 to 10000	> 10000	–	–	–	–	1000 to 10000	> 10000	–	–
COCCOCc1cc2c(N3CCC(NC4CC4)CC3)ccc(C(=O)Nc3cc(F)c4nc(C)cn4c3)n2n1 [Compound 629, 4-[4-(cyclopropylamino)-1-piperidyl]-N-(8-fluoro-2-methyl-imidazo[1,2-a]-pyridin-6-y1)-2-(2-methoxyethoxy-methyl)-pyrazolo[1,5-a]pyridine-7-carboxamide]	< 100	< 100	100 to 1000	100 to 1000	100 to 1000	–	–	–	–	< 100	1000 to 10000	–	–
COc1cn2nc(C)cc2cc1NC(=O)c1c(F)cc(N2CCC(NC3CC3)CC2)c2cn(C)nc12 [Compound 432, 4-[4-(cyclopropylamino)-1-piperidyl]-6-fluoro-N-(6-methoxy-2-methyl-pyrazolo[1,5-a]pyridin-5-yl)-2-methyl-indazole-7-carboxamide]	–	–	–	< 100	–	< 100	< 100	100 to 1000	100 to 1000	–	–	< 100	100 to 1000
CNC1CN(c2ccc(C(=O)Nc3cn4cc(C)nc(CNS(C)(=O)=O)c4n3)c3nn(C)cc23)C1 [Compound 849]	100 to 1000	100 to 1000	100 to 1000	100 to 1000	100 to 1000	–	–	–	–	100 to 1000	100 to 1000	–	–
CCNC1CCN(c2ccc(C(=O)Nc3cc(CC(N)=O)c4nn(C)cc4c3)c3nn(C)cc23)CC1 [Compound 873, N-[7-(2-amino-2-oxo-ethyl)-2-methyl-indazol-5-yl]-4-[4-(ethylamino)-1-piperidyl]-2-methyl-indazole-7-carboxamide]	> 10000	> 10000	> 10000	> 10000	> 10000	–	–	–	–	> 10000	> 10000	–	–
CCOc1cc2nc(C)cn2cc1NC(=O)c1c(F)cc(N2CCC(NC3CC3)CC2)c2cn(C)nc12 [Compound 406, 4-[4-(cyclopropylamino)-1-piperidyl]-N-(7-ethoxy-2-methyl-imidazo[1,2-a]pyridin-6-yl)-6-fluoro-2-methyl-indazole-7-carboxamide]	–	–	–	100 to 1000	–	100 to 1000	100 to 1000	1000 to 10000	1000 to 10000	–	–	100 to 1000	1000 to 10000
CNCC1CCN(c2ccc(C(=O)Nc3cn4cc(C)nc(C)c4n3)c3nn(C)cc23)CC1 [Compound 532]	–	–	–	100 to 1000	–	100 to 1000	100 to 1000	100 to 1000	100 to 1000	–	–	100 to 1000	100 to 1000
Cc1cn2cc(NC(=O)c3c(F)cc(N4CCC(NC5CC5)CC4)c4cn(C)nc34)c(Oc3ccccc3)cc2n1 [Compound 417, 4-[4-(cyclopropylamino)-1-piperidyl]-6-fluoro-2-methyl-N-(2-methyl-7-phenoxyimidazo[1,2-a]pyridin-6-yl)-indazole-7-carboxamide]	–	–	–	100 to 1000	–	< 100	< 100	> 10000	> 10000	–	–	< 100	1000 to 10000
Cc1cn2cc(NC(=O)c3ccc(N4CCC(NC5CC5)CC4)c4cn(C)nc34)nc2c(CNC(C)C(F)(F)F)n1 (centres unmarked) [Compound 791, 4-[4-(cyclopropylamino)-1-piperidyl]-2-methyl-N-[6-methyl-8-[[(2,2,2-trifluoro-1-methyl-ethyl)amino]methyl]imidazo[1,2-a]pyrazin-2-yl]indazole-7-carboxamide]	> 10000	> 10000	> 10000	1000 to 10000	> 10000	–	–	–	–	> 10000	> 10000	–	–
COc1cc2c(N3C[C@H](C)N[C@@H](C)C3)ccc(C(=O)Nc3cc(F)c4nn(C)cc4c3)c2o1 [Compound 790]	< 100	< 100	1000 to 10000	100 to 1000	1000 to 10000	–	–	–	–	< 100	100 to 1000	–	–
COc1cc2nn(C)cc2cc1NC(=O)c1c(C)cc(N2CCC(NC3CC3)CC2)c2cn(C)nc12 [Compound 472, 4-[4-(cyclopropylamino)-1-piperidyl]-N-(6-methoxy-2-methyl-indazol-5-yl)-2,6-dimethylindazole-7-carboxamide]	–	–	–	1000 to 10000	–	> 10000	> 10000	> 10000	> 10000	–	–	1000 to 10000	> 10000
COc1nc2c(C(=O)Nc3cc(F)c4nc(C)nn4c3)ccc(N3C[C@H](C)N[C@@H](C)C3)c2s1 [Compound 763, 7-[(3S,5S)-3,5-dimethylpiperazin-1-yl]-N-(8-fluoro-2-methyl-[1,2,4]triazolo[1,5-a]pyridin-6-yl)-2-methoxy-1,3-benzothiazole-4-carboxamide]	< 100	< 100	1000 to 10000	< 100	1000 to 10000	–	–	–	–	< 100	100 to 1000	–	–

Further lines, with some results ahead:

IC50 (MYB mRNA [1]; [7]) [nM]	IC50 (MYB mRNA [2]; [8]) [nM]	IC50 (HTT mRNA [3]; [8]) [nM]	GI50 [4] [nM]	IC50 (HTT mRNA [5]; [10]) [nM]	IC50 (MYB mRNA [1]; [12]) [nM]	IC50 (MYB mRNA [2]; [13]) [nM]	IC50 (HTT mRNA [3]; [13]) [nM]	IC50 (HTT mRNA [5]; [15]) [nM]	SMILES	AC50 (MYB mRNA [1]; [6]) [nM]	AC50 (HTT mRNA [5]; [9]) [nM]	AC50 (MYB mRNA [1]; [11]) [nM]	AC50 (HTT mRNA [5]; [14]) [nM]
–	–	–	1000 to 10000	–	100 to 1000	100 to 1000	1000 to 10000	1000 to 10000	COc1nc2nn(C)cc2cc1NC(=O)c1ccc(N2CCC(NC3CC3)CC2)c2cn(C)nc12 [Compound 460, 4-[4-(cyclopropylamino)-1-piperidyl]-N-(6-methoxy-2-methyl-pyrazolo[3,4-b]-pyridin-5-yl)-2-methyl-indazole-7-carboxamide]	–	–	100 to 1000	1000 to 10000
–	–	–	100 to 1000	–	100 to 1000	100 to 1000	100 to 1000	100 to 1000	COc1cc2nn(C)cc2cc1NC(=O)c1ccc(N2CCC(NC3CC3)CC2)c2cc(CO)nn12 [Compound 443, 4-(4-(cyclopropylamino)piperidin-1-yl)-2-(hydroxymethyl)-N-(6-methoxy-2-methyl-2H-indazol-5-yl)pyrazolo[1,5-a]pyridine-7-carboxamide 2,2,2-trifluoroacetate]	–	–	< 100	100 to 1000
> 10000	> 10000	> 10000	> 10000	> 10000	–	–	–	–	CN(C)c1ccc(C(=O)Nc2cc(CNS(C)(=O)=O)c3nn(C)cc3c2)c2nn(C)cc12 [Compound 841]	> 10000	> 10000	–	–
–	–	–	100 to 1000	–	100 to 1000	100 to 1000	> 10000	> 10000	Cc1cn2cc(NC(=O)c3c(F)cc(N4CCC(NC5CC5)CC4)c4cn(C)nc34)nc2c(C)n1 [Compound 334, 4-(4-(cyclopropylamino)-piperidin-1-yl)-N-(6,8-dimethyl-imidazo[1,2-a]pyrazin-2-y1)-6-fluoro-2-methyl-2H-indazole-7-carboxamide bis(2,2,2-trifluoroacetate)]	–	–	< 100	1000 to 10000
1000 to 10000	1000 to 10000	1000 to 10000	1000 to 10000	1000 to 10000	–	–	–	–	CNS(=O)(=O)CCc1nc(C)cn2cc(NC(=O)c3ccc(N4CCC(NC5CC5)CC4)c4cn(C)nc34)nc12 [Compound 832]	1000 to 10000	1000 to 10000	–	–
> 10000	> 10000	> 10000	> 10000	> 10000	–	–	–	–	Cc1cn2cc(NC(=O)c3ccc(N4CCC(NC5CC5)CC4)c4cn(C)nc34)nc2c(CNC(=N)N)n1 [Compound 754, 4-(4-(cyclopropylamino)piperidin-1-yl)-N-(8-(guanidinomethyl)-6-methylimidazo[1,2-a]pyrazin-2-yl)-2-methyl-2H-indazole-7-carboxamide bis(2,2,2-trifluoroacetate)]	> 10000	> 10000	–	–
> 10000	> 10000	> 10000	1000 to 10000	> 10000	–	–	–	–	Cn1cc2cc(NC(=O)c3ccc(N4CCC(N(C(=O)OC(C)(C)C)C5CC5)CC4)c4cn(C)nc34)cc(CN)c2n1 [Compound 815]	> 10000	> 10000	–	–
